Experimental data: patent US7923442B2, “Glutathione peroxidase mimetics and uses thereof” (UTI Limited Partnership, priority 2005, dated 2011)

Assay: Catalytic activity of GPx mimetics: overall comparison of catalysts in words (both oxidants)
Conditions: reduction of peroxides with BnSH
Source text: (§1) Catalytic activity of the compounds described herein can be determined via assessing the reduction of tert-butyl hydroxyperoxide and hydrogen peroxide with benzyl thiol for example as described in Example 1, herein. According to this embodiment, catalytic activity was compared by means of reaction half-life (t1/2), where the value reflects the time required to oxidize half of the thiol to its disulfide.
(§2) Catalytic activity of some of the compounds synthesized as described the foregoing Examples are described in the tables below, where the activity measured is in terms of comparability to selenoenzyme glutathione peroxidase. Reactions were performed with BnSH (0.029 M), the catalyst (0.0029 M) and either 56% TBHP (0.038 M), 38% TBHP (0.023 M) or 29% H2O2(0.040 M) in CH2Cl2-MeOH (95:5) at 18° C., except for entries 7, 8, 17 and 18, where the solvent was CH2Cl2-MeOH (4:1).
In general, hydrogen peroxide was reduced faster than tert-butyl hydroperoxide in the presence of the selenium-based catalysts.
For `O=[Se]1OCc2ccccc21` (stereo not drawn) [Compound 19, Benzo-1,2-oxaselenolane Se-Oxide], the “catalytic activity compared to the parent cyclic seleninate ester 14 and spirodioxyselenurane 16” value was “inferior catalysts”. With `O=C1O[Se]2(OC(=O)c3ccccc32)c2ccccc21` [Compound 25, Spirodioxyselenurane, reference compound] the “catalytic activity compared to the parent cyclic seleninate ester 14 and spirodioxyselenurane 16” value was “inferior catalysts”. In the case of `c1ccc2c(c1)CO[Se]21OCc2ccccc21` [Compound 24, Spirodioxyselenurane], the “catalytic activity compared to the parent cyclic seleninate ester 14 and spirodioxyselenurane 16” value is reported as “inferior catalysts”. With `O=C1O[Se](=O)c2ccccc21` (stereo not drawn) [Compound 22, Benzo-3-oxo-1,2-Oxaselenolane Se-Oxide] the “catalytic activity compared to the parent cyclic seleninate ester 14 and spirodioxyselenurane 16” value was “inferior catalysts”.

Same assay, conditions: reduction of peroxides with BnSH; fastest reaction rates
With `C1CO[Te]2(C1)CCCO2` [Compound 29, Spirodioxytellurane] the “catalytic activity compared to their selenium analogs 14 and 16” value was “superior catalysts”. With `O=[Te]1CCCO1` [Compound 27, 1,2-Oxatellurolane Te-oxide] the “catalytic activity compared to their selenium analogs 14 and 16” value was “superior catalysts”.

Assay: Catalytic activity of GPx mimetics: reduction of tert-butyl hydroperoxide with benzyl thiol
Conditions: not given
Protocol: as §1
(§3) Diselenide 17, selenide 20 and spirodioxyselenurane 25 were prepared by literature procedures. NMR spectra were run in CDCl3 unless otherwise indicated. Chemical shifts for ^77Se and ^125Te NMR spectra are reported relative to dimethyl selenide and dimethyl telluride, respectively (δ 0.00). The spectra were recorded by using diphenyl diselenide in CDCl3 (δ 463 ppm) or selenium dioxide in D2O (δ 1302.6 ppm) for ^77Se NMR spectra, and diphenyl ditelluride in CDCl3 (δ 420.8 ppm) for ^125Te NMR spectra. Benzyl thiol was distilled prior to use and the concentrations of tert-butyl hydroperoxide and hydrogen peroxide were determined by iodometric analysis.
(§4) Glassware used in the measurement of catalytic activity (Example 9) was washed only with water followed by acetone, and was flame-dried prior to use. Contamination with traces of detergent or alkali produced abnormal kinetic results.
as §2
For `O=[Se]1OCc2ccccc21` (stereo not drawn) [Compound 19, Benzo-1,2-oxaselenolane Se-Oxide], the “t1/2 (h), time required to oxidize half of the thiol to its disulfide” value (“t1/2 (h), time required to oxidize half” below) was 162 h. In the case of `O=C1O[Se]2(OC(=O)c3ccccc32)c2ccccc21` [Compound 25, Spirodioxyselenurane, reference compound], the “t1/2 (h), time required to oxidize half” value is reported as 113 h. With `c1ccc2c(c1)CO[Se]21OCc2ccccc21` [Compound 24, Spirodioxyselenurane] the “t1/2 (h), time required to oxidize half” value was 62 h. For `O=C1O[Se](=O)c2ccccc21` (stereo not drawn) [Compound 22, Benzo-3-oxo-1,2-Oxaselenolane Se-Oxide], the “t1/2 (h), time required to oxidize half” value was 252 h. In the case of `O=[Se]1OCc2cc(F)ccc21` (stereo not drawn) [Compound 93, 5-fluorobenzo-1,2-oxaselenolane Se-oxide], the “t1/2 (h), time required to oxidize half” value is reported as 238 h. In the case of `COc1ccc2c(c1)CO[Se]21OCc2cc(OC)ccc21` [Compound 126, spirodioxyselenurane], the “t1/2 (h), time required to oxidize half” value is reported as 39 h. With `Fc1ccc2c(c1)CO[Se]21OCc2cc(F)ccc21` [Compound 127, spirodioxyselenurane] the “t1/2 (h), time required to oxidize half” value was 181 h. In the case of `COc1ccc2c(c1)CO[Se]2=O` (stereo not drawn) [Compound 91, 5-metboxybenzo-1,2-oxaselenolane Se-oxide], the “t1/2 (h), time required to oxidize half” value is reported as 81 h.

Assay: Catalytic activity of GPx mimetics: reduction of hydrogen peroxide with benzyl thiol
Conditions: not given
Protocol: as §1, §3, §4, §2
In the case of `O=[Se]1OCc2ccccc21` (stereo not drawn) [Compound 19, Benzo-1,2-oxaselenolane Se-Oxide], the “t1/2 (h), time required to oxidize half” value is reported as 18 h. For `O=C1O[Se]2(OC(=O)c3ccccc32)c2ccccc21` [Compound 25, Spirodioxyselenurane, reference compound], the “t1/2 (h), time required to oxidize half” value was 35 h. In the case of `c1ccc2c(c1)CO[Se]21OCc2ccccc21` [Compound 24, Spirodioxyselenurane], the “t1/2 (h), time required to oxidize half” value is reported as 5.5 h. In the case of `O=C1O[Se](=O)c2ccccc21` (stereo not drawn) [Compound 22, Benzo-3-oxo-1,2-Oxaselenolane Se-Oxide], the “t1/2 (h), time required to oxidize half” value is reported as 73 h. With `O=[Se]1OCc2cc(F)ccc21` (stereo not drawn) [Compound 93, 5-fluorobenzo-1,2-oxaselenolane Se-oxide] the “t1/2 (h), time required to oxidize half” value was 39 h. For `COc1ccc2c(c1)CO[Se]21OCc2cc(OC)ccc21` [Compound 126, spirodioxyselenurane], the “t1/2 (h), time required to oxidize half” value was 3.3 h. In the case of `O=[Se]1CCCO1` (stereo not drawn) [Compound 14, reference compound], the “t1/2 (h), time required to oxidize half” value is reported as 18 h. For `C1CO[Se]2(C1)CCCO2` [Compound 16, reference compound], the “t1/2 (h), time required to oxidize half” value was 0.2 h. For `Fc1ccc2c(c1)CO[Se]21OCc2cc(F)ccc21` [Compound 127, spirodioxyselenurane], the “t1/2 (h), time required to oxidize half” value was 16 h. With `COc1ccc2c(c1)CO[Se]2=O` (stereo not drawn) [Compound 91, 5-metboxybenzo-1,2-oxaselenolane Se-oxide] the “t1/2 (h), time required to oxidize half” value was 28 h.

Assay: not given
Conditions: not given
`O=[Se]1OCc2cc(F)ccc21` (stereo not drawn) [Compound 93, 5-fluorobenzo-1,2-oxaselenolane Se-oxide] showed a melting point of 141 to 142 °C. Work on `COc1ccc2c(c1)CO[Se]21OCc2cc(OC)ccc21` [Compound 126, spirodioxyselenurane] yielded a melting point of 171 to 173 °C. `Fc1ccc2c(c1)CO[Se]21OCc2cc(F)ccc21` [Compound 127, spirodioxyselenurane] showed a melting point of 189 to 191 °C.
